# Results taken from US10239870B2, “Dopamine D3 receptor antagonists” (priority 2014, dated 2019).
# Structures can show the parent of a compound that is named as a salt.
# Biological target: hD2 recombinant receptor (human dopamine receptor type 2, long variant, CHO-Gα16-hD2L cells) (Homo sapiens (Human), UniProt P14416)
# Assay: cell-based
# Settings: D2 fpKi, functional pKi; antagonism of dopamine EC80 calcium response (FLIPR)
row,Ki [nM],SMILES
1,> 10000,"Cc1ncoc1-c1nnc(SCCCN2CCC[C@]3(C[C@@H]3c3ccc(C(F)(F)F)cc3)C2)n1C [Example 313, (1S,3S/1R,3R)-5-(3-{[4-methyl-5-(4-methyl-1,3-oxazol-5-yl)-4H-1,2,4-triazol-3-yl]sulfanyl}propyl)-1-[4-(trifluoromethyl)phenyl]-5-azaspiro[2.5]octane]"
2,2240,"Cc1ncoc1-c1nnc(SCCCN2CCC3(CCC3c3ccccc3)C2)n1C (single isomer, unassigned) [Example 321, (1R,4S or 1S,4R or 1S,4S or 1R,4R)-6-(3-{[4-methyl-5-(4-methyl-1,3-oxazol-5-yl)-4H-1,2,4-triazol-3-yl]sulfanyl}propyl)-1-phenyl-6-azaspiro[3.4]octane hydrochloride]"
3,871,"Cn1c(CCCCN2CC[C@]3(C[C@@H]3c3ccc(C(F)(F)F)cc3F)C2)nnc1C1CCOCC1 (single isomer, unassigned) [Example 295, hydrochloride]"
4,1120,"Cc1ncoc1-c1nnc(SCCCN2CCC3(CC2)C[C@@H]3c2ccccc2)n1C (single isomer, unassigned) [Example 309, (1S or 1R)-6-(3-{[4-methyl-5-(4-methyl-1,3-oxazol-5-yl)-4H-1,2,4-triazol-3-yl]sulfanyl}propyl)-1-phenyl-6-azaspiro[2.5]octane hydrochloride]"
5,> 10000,"Cn1c(CCCCN2CC[C@]3(CC3c3ccc(C(F)(F)F)cc3)C2)nnc1C1CCOCC1 (stereo partly drawn) [Example 296, (1S,3S/1R,3R)-5-{4-[4-methyl-5-(oxan-4-yl)-4H-1,2,4-triazol-3-yl]butyl}-1-[4-(trifluoromethyl)phenyl]-5-azaspiro[2.4]heptane]"
6,> 10000,"Cn1c(CCCCN2CC[C@]3(C[C@H]3c3ccc(C(F)(F)F)cc3)C2)nnc1C1CCOCC1 (single isomer, unassigned) [Example 299, (1S,3S or 1R,3R)-5-{4-[4-methyl-5-(oxan-4-yl)-4H-1,2,4-triazol-3-yl]butyl}-1-[4-(trifluoromethyl)phenyl]-5-azaspiro[2.4]heptane hydrochloride]"
7,> 10000,"Cn1c(OCCCN2CC[C@]3(C[C@H]3c3ccc(C(F)(F)F)cc3)C2)nnc1C1CCOCC1 [Example 303, (1S,3S/1R,3R)-5-(3-{[4-methyl-5-(oxan-4-yl)-4H-1,2,4-triazol-3-yl]oxy}-propyl)-1-[4-(trifluoromethyl)phenyl]-5-azaspiro[2.4]heptane]"
8,1450,"Cc1ncoc1-c1nnc(CCCCN2CC[C@]3(CC3c3ccc(C(F)(F)F)cc3)C2)n1C (stereo partly drawn) [Example 301, (1R,3S/1S,3R)-5-{4-[4-methyl-5-(4-methyl-1,3-oxazol-5-yl)-4H-1,2,4-triazol-3-yl]butyl}-1-[4-(trifluoromethyl)phenyl]-5-azaspiro[2.4]heptane hydrochloride]"
9,> 10000,"Cn1c(CCCCN2CC[C@@]3(C[C@@H]3c3ccc(C(F)(F)F)cc3)C2)nnc1C1CCOCC1 (single isomer, unassigned) [Example 300, (1R,3R or 1S,3S)-5-{4-[4-methyl-5-(oxan-4-yl)-4H-1,2,4-triazol-3-yl]butyl}-1-[4-(trifluoromethyl)phenyl]-5-azaspiro[2.4]heptane hydrochloride]"

# More lines, now with the values behind:
row,SMILES,Ki [nM]
1,"Cn1c(SCCCN2CC[C@]3(CC3c3ccc(C(F)(F)F)cc3)C2)nnc1N1CCOCC1 (single isomer, unassigned) [Example 114, hydrochloride]",1620
2,"Cn1c(SCCCN2CC[C@]3(CC3c3ccc(C(F)(F)F)cc3F)C2)nnc1-c1ccncn1 (stereo partly drawn) [Example 213, (1S,3S/1R,3R)-1-[2-fluoro-4-(trifluoromethyl)phenyl]-5-(3-{[4-methyl-5-(pyrimidin-4-yl)-4H-1,2,4-triazol-3-yl]sulfanyl}propyl)-5-azaspiro[2.4]heptane]",81.3
3,"CC(=O)N1CCC(c2nnc(SCCCN3CC[C@]4(C[C@@H]4c4ccc(C(F)(F)F)cc4)C3)n2C)CC1 (single isomer, unassigned) [Example 100]",1170
4,"Cn1c(SCCCN2CC[C@]3(CC3c3ccc(C(F)(F)F)cc3F)C2)nnc1C1CCOCC1 (single isomer, unassigned) [Example 76]",708
5,"Cn1c(SCCCN2CC[C@]3(C[C@H]3c3ccc(C(F)(F)F)cc3F)C2)nnc1C1CCOCC1 (single isomer, unassigned) [Example 75, (1R,3S or 1S,3R)-1-[2-fluoro-4-(trifluoromethyl)phenyl]-5-(3-{[4-methyl-5-(oxan-4-yl)-4H-1,2,4-triazol-3-yl]sulfanyl}propyl)-5-azaspiro[2.4]heptane hydrochloride]",> 10000
6,"Cn1c(SCCCN2CC[C@@]3(C[C@@H]3c3ccc(C(F)(F)F)cc3F)C2)nnc1C1CCOCC1 (single isomer, unassigned) [Example 74, (1S,3R or 1R,3S)-1-[2-fluoro-4-(trifluoromethyl)phenyl]-5-(3-{[4-methyl-5-(oxan-4-yl)-4H-1,2,4-triazol-3-yl]sulfanyl}propyl)-5-azaspiro[2.4]heptane hydrochloride]",1260
7,"CC(=O)N1CCC(c2nnc(SCCCN3CC[C@]4(C[C@@H]4c4ccc(C(F)(F)F)cc4)C3)n2C)CC1 [Example 99, 1-{4-[4-methyl-5-({3-[(1R,3S/1S,R3)-1-[4-(trifluoromethyl)phenyl]-5-azaspiro[2.4]heptan-5-yl]propyl}sulfanyl)-4H-1,2,4-triazol-3-yl]piperidin-1-yl}ethan-1-one]",2240
8,"Cn1c(SCCCN2CC[C@]3(CC3c3ccc(C(F)(F)F)cc3F)C2)nnc1C1CCOCC1 (single isomer, unassigned) [Example 71]",> 10000
9,"Cn1c(SCCCN2CC[C@]3(CC3c3ccc(C(F)(F)F)nc3)C2)nnc1C1CCOCC1 (stereo partly drawn) [Example 84, (1R,3S/1S,3R)-5-(3-{[4-methyl-5-(oxan-4-yl)-4H-1,2,4-triazol-3-yl]sulfanyl}propyl)-1-[6-(trifluoromethyl)pyridin-3-yl]-5-azaspiro[2.4]heptane]",> 10000
10,"Cn1c(SCCCN2CC[C@]3(CC3c3ccc(C(F)(F)F)cc3)C2)nnc1N1CCOCC1 (single isomer, unassigned) [Example 115]",97.7

# Biological target: hD2 recombinant receptor (human dopamine receptor type 2, long variant, CHO-Gα16-hD2L membranes) (Homo sapiens (Human), UniProt P14416)
# Assay: not given
# Settings: displacement of 0.08 nM [3H]-Spiperone
row,D2 pKi,SMILES
1,6.16,"Cn1c(SCCCN2CC[C@]3(CC3c3ccc(F)cc3)C2)nnc1-c1ccc(=O)[nH]c1 (stereo partly drawn) [Example 131, 5-[5-({3-[(1R,3S/1S,3R)-1-(4-fluorophenyl)-5-azaspiro[2.4]heptan-5-yl]propyl}sulfanyl)-4-methyl-4H-1,2,4-triazol-3-yl]-1,2-dihydropyridin-2-one]"
2,5.99,"CC(=O)N1CCC(c2nnc(SCCCN3CC[C@]4(C[C@@H]4c4ccc(C(F)(F)F)cc4F)C3)n2C)CC1 [Example 101, 1-{4-[5-({3-[(1S,3S/1R,3R)-1-[2-fluoro-4-(trifluoromethyl)phenyl]-5-azaspiro[2.4]heptan-5-yl]propyl}sulfanyl)-4-methyl-4H-1,2,4-triazol-3-yl]piperidin-1-yl}ethan-1-one]"
3,5.84,"CNC(=O)c1cccc(-c2nnc(SCCCN3CC[C@]4(C[C@@H]4c4ccc(C(F)(F)F)cc4)C3)n2C)n1.Cl [Example 195, N-methyl-6-[4-methyl-5-({3-[(1R,3S)-1-[4-(trifluoromethyl)phenyl]-5-azaspiro[2.4]heptan-5-yl]propyl}sulfanyl)-4H-1,2,4-triazol-3-yl]pyridine-2-carboxamide hydrochloride]"
4,5.80,"COCCC(=O)N1CCC(c2nnc(SCCCN3CC[C@]4(C[C@@H]4c4ccc(C(F)(F)F)cc4)C3)n2C)CC1.Cl [Example 104, 3-methoxy-1-{4-[4-methyl-5-({3-[(1R,3S)-1-[4-(trifluoromethyl)phenyl]-5-azaspiro[2.4]heptan-5-yl]propyl}sulfanyl)-4H-1,2,4-triazol-3-yl]piperidin-1-yl}propan-1-one hydrochloride]"
5,6.00,"Cn1c(SCCCN2CC[C@]3(CC3c3ccc(C(F)(F)F)cc3F)C2)nnc1-c1cccc(=O)[nH]1 (stereo partly drawn) [Example 123, 6-[5-({3-[(1R,3S/1S,3R)-1-[2-fluoro-4-(trifluoromethyl)phenyl]-5-azaspiro[2.4]heptan-5-yl]propyl}sulfanyl)-4-methyl-4H-1,2,4-triazol-3-yl]-1,2-dihydropyridin-2-one]"
6,5.38,"Cl.Cn1c(SCCCN2CC[C@]3(C[C@@H]3c3ccc(C(F)(F)F)cc3)C2)nnc1-c1cccn2cnnc12 [Example 267, (1R,3S)-5-{3-[(4-methyl-5-{[1,2,4]triazolo[4,3-a]pyridin-8-yl}-4H-1,2,4-triazol-3-yl)-sulfanyl]propyl}-1-[4-(trifluoromethyl)phenyl]-5-azaspiro[2.4]heptane]"
7,6.35,"Cn1c(SCCCN2CC[C@]3(CC3c3ccc(C(F)(F)F)cc3F)C2)nnc1-c1ccc(=O)[nH]c1 (stereo partly drawn) [Example 129, 5-[5-({3-[(1S,3S/1R,3R)-1-[2-fluoro-4-(trifluoromethyl)phenyl]-5-azaspiro[2.4]heptan-5-yl]propyl}sulfanyl)-4-methyl-4H-1,2,4-triazol-3-yl]-1,2-dihydropyridin-2-one]"
8,5.56,"CC(=O)N1CC(c2nnc(SCCCN3CC[C@]4(C[C@@H]4c4ccc(C(F)(F)F)cc4)C3)n2C)C1 [Example 107, 1-{3-[4-methyl-5-({3-[(1R,3S/1S,3R)-1-[4-(trifluoromethyl)phenyl]-5-azaspiro[2.4]heptan-5-yl]propyl}sulfanyl)-4H-1,2,4-triazol-3-yl]azetidin-1-yl}ethan-1-one]"
9,6.34,"Cn1c(SCCCN2CC[C@]3(CC3c3ccc(C(F)(F)F)cc3)C2)nnc1-c1cccc(=O)[nH]1 (stereo partly drawn) [Example 122, 6-[4-methyl-5-({3-[(1R,3S/1S,3R)-1-[4-(trifluoromethyl)phenyl]-5-azaspiro[2.4]heptan-5-yl]propyl}sulfanyl)-4H-1,2,4-triazol-3-yl]-1,2-dihydropyridin-2-one]"
10,5.63,"Cc1ncoc1-c1nnc(SCCCN2CC[C@]3(CC3c3ccc(C(F)(F)F)nc3)C2)n1C (stereo partly drawn) [Example 61, (1R,3S/1S,3R)-5-(3-{[4-methyl-5-(4-methyl-1,3-oxazol-5-yl)-4H-1,2,4-triazol-3-yl]sulfanyl}propyl)-1-[6-(trifluoromethyl)pyridin-3-yl]-5-azaspiro[2.4]heptane]"
